Data reported in US20050014834A1, “Selective anesthetic agents and methods of identifying the same” (priority 2001, published 2005).

What was measured:
[1] = tested on: β2N289S knock-in and wildtype mice; experiment: Loss of righting reflex (LORR) as behavioural measure of anesthesia; assay type: in vivo, mouse
Experimental: Loss of righting reflex (LORR) was used as a crude behavioural measure of anesthesia. Mice (n=11 wildtype, n=10 knock-in for each dose) were dosed intraperitoneally (i.p.) with 20, 30 or 40 mg/kg etomidate. Each mouse was placed in a separate cage and tested for LORR by gently rolling the mouse on it back. When the righting reflex had disappeared (usually around 90 seconds) the mouse was laid on it back on a piece of corrugated plastic and the time until righting reflex was regained was recorded. In order to avoid excessive heat loss during anesthesia a heat lamp was placed above the mice. To control for non-specific changes in anesthetic sensitivity induced by the mutation two different classes of anesthetics were also tested in this model: pentobarbitone, 50 mg/kg i.p. (n=11) and midazolam, 80 mg/kg i.p. (n=5).

[2] = tested on: GABAA receptors; details: cited from earlier work; for potentiation of the action of GABA: native and all recombinant GABAA receptors studied to date
[3] = target: GABAA receptor β3 subunit N289S (Homo sapiens, UniProt P28472+Q16445, N290S); details: asparagine 289 of β3 to serine; cited from earlier work
[4] = tested on: β2N289S knock-in and wildtype mice; experiment: Level of anaesthesia by electroencephalography (EEG burst suppression); assay type: in vivo, mouse; details: 12.5 mg/kg intravenous; FIG. 4
Experimental: In order to compare the depth of anaesthesia in both genotypes, wildtype (n=4) and knock-in (n=4) mice were implanted with radiotelemetry transmitters for the measurement of electroencephalographic (EEG) data. Mice were allowed to recover from the surgical procedure for 14-21 days before experiment. Mice were dosed with 12.5 mg/kg etomidate by the intravenous route and EEG data was continuously sampled. Data sampled at 250 Hz (transmitter bandwidth 0.5-100 Hz, low pass data filter 70 Hz). Data analysed using Somnologica 3 in 100 mSec epochs for % suppression activity per minute. Isoelectric window defined as waveform amplitude less than 5 μV (typical peak to peak amplitude ˜250 μV).

[5] = target: T1, human GABAA receptor β2 subunit (position 289 mutant) (Homo sapiens, UniProt P14867+P47870, N289S); details: recombinant receptors expressed in cell lines; cited from earlier work
T1 construct: expressed in transfected cells
T1 sequence (P47870 25-512 N289S limits assumed): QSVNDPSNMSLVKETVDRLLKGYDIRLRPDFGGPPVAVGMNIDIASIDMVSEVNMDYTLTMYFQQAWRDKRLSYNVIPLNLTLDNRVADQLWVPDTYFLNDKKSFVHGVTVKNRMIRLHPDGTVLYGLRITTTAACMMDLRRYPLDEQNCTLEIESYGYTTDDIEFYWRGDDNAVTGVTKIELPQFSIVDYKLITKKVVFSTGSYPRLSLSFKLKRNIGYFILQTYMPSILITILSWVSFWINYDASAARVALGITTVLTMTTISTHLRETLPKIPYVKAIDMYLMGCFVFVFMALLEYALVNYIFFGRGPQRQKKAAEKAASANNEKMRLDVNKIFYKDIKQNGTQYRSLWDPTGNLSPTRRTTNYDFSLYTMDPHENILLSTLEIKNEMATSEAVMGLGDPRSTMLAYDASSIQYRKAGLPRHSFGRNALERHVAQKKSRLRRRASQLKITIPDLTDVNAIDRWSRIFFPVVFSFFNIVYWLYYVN
T1 sequence (P14867 28-456): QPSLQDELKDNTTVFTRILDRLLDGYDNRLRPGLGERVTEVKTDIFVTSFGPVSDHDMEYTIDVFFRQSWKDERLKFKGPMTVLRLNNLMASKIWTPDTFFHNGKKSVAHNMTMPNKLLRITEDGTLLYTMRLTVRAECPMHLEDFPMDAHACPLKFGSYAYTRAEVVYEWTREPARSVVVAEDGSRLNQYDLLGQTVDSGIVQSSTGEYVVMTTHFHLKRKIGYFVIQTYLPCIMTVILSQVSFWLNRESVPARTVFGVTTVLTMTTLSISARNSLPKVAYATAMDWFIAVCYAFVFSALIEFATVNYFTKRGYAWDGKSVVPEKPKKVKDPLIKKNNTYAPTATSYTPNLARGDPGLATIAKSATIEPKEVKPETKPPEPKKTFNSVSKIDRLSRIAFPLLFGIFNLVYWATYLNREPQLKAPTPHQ
T1 sequence (P18507 40-467 partner limits assumed): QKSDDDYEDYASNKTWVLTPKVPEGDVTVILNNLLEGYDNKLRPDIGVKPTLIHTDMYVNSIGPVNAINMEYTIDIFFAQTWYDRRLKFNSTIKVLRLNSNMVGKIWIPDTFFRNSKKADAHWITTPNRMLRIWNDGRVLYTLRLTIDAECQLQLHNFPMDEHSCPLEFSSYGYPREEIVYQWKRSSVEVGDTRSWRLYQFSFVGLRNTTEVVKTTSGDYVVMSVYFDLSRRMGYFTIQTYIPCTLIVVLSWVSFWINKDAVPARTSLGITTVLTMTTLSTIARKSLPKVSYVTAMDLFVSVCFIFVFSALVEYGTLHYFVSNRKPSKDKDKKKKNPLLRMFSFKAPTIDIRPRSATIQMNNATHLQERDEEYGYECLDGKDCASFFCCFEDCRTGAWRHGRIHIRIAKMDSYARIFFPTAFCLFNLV

[6] = tested on: β2N289S knock-in and wildtype mice; experiment: Rotarod test of motor co-ordination: recovery following etomidate anesthesia; assay type: in vivo, mouse; details: for time mice could stay on rotarod: 90 minutes after testing began, rod 16 rpm, 120 second trial
Experimental: Wildtype (n=30) and knock-in (n=30) mice were trained to perform the rotarod test of motor co-ordination. Mice were placed on a rod revolving at 16 rpm and the time taken for them to fall off recorded. Each mouse was given successive training trials until it could remain on the rod for 3 consecutive trials of 120 second duration. Mice were then split into 3 groups (n=10 for each genotype) and dosed i.p. with 15, 20 or 30 mg/kg etomidate. Mice were then placed back on the rotarod every 10 minutes (for 90 minutes), starting from the mean time for recovery of righting reflex for a given dose (obtained from experiment 1). In this way the rate of recovery of the ability to perform a motor task could be assessed.

[7] = tested on: β2N289S knock-in and wildtype mice; experiment: Post-anaesthetic slow wave sleep by EEG (hypnotic hangover); assay type: in vivo, mouse; details: 12.5 mg/kg intravenous, FIG. 5
Experimental: In order to quantify the amount of post-anaesthetic sleep, wildtype (n=4) and knock-in (n=4) mice were implanted with radiotelemetry transmitters for the measurement of electroencephalographic (EEG) data. Mice were allowed to recover from the surgical procedure for 13 days before experiment. Baseline EEG data was recorded on day 1 of the experimental protocol. On the 2nd experimental day, mice were dosed with 12.5 mg/kg etomidate by the intravenous route and EEG data was continuously sampled. EEG data sampled at 250 Hz (transmitter bandwidth 0.5-100 Hz, low pass data filter 70 Hz). Data analysed using Somnologica 3 in 8 sec epochs and scored for either “wake” or “slow wave sleep” according to standard electrophysiological criteria (van Gool, W. A. & Mirmiran, M., Sleep, 9, 335 (1986)). Following recovery from etomidate anaesthesia, the amount of slow wave sleep was expressed as percentage of the circadian timed matched baseline.

Chain of GABAA receptor β3 subunit N289S (P28472 26-473 N290S, one chain of several): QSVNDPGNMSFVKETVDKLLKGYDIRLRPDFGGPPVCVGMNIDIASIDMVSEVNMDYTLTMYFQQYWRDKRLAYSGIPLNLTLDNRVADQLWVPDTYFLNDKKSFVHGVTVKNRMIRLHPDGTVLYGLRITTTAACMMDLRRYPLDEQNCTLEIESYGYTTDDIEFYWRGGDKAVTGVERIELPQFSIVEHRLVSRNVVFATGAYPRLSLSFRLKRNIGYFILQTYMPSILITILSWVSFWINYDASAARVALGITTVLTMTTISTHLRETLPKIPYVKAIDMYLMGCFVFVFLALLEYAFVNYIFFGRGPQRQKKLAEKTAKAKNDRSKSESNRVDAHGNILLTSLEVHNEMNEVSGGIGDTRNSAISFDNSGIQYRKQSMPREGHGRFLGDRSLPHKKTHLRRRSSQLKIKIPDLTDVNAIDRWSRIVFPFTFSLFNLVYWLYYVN
Chain of GABAA receptor β3 subunit N289S (Q16445 20-453, one chain of several): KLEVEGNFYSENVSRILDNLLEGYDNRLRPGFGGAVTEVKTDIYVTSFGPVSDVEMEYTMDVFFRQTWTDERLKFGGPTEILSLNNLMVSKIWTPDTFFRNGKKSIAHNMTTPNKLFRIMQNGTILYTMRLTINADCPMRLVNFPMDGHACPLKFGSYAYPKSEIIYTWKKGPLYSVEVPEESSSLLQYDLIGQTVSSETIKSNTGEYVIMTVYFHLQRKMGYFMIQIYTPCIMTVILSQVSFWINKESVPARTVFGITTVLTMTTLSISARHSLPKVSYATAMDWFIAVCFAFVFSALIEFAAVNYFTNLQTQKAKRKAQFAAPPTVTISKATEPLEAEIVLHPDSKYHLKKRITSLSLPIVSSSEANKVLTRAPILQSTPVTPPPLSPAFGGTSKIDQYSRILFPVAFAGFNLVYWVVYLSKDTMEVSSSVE

Cc1ncc2n1-c1ccc(Cl)cc1C(c1ccccc1F)=NC2 [midazolam]
duration of LORR, knock-in versus wildtype mice ([1]; midazolam 80 mg/kg i.p., F1,28=0.61, p=0.44): no significant difference

CC(C)c1cccc(C(C)C)c1O [propofol]
potentiation of the action of GABA [2]: markedly potentiate the action of GABA

CCOC(=O)c1cncn1[C@H](C)c1ccccc1 [etomidate]
time until righting reflex had disappeared ([1]; after i.p. dosing 20, 30 or 40 mg/kg, 'usually'): around 90 seconds | duration of LORR, knock-in versus wildtype mice ([1]; etomidate 20, 30 or 40 mg/kg i.p., F1,57=0.005, p=0.9498, FIG. 2): nearly significantly similar | effect of β3 N289S mutation on GABA-modulatory and GABA-mimetic effects [3]: strongly suppressed | EEG burst suppression (% of each minute EEG in suppression), wildtype versus knock-in [4]: no significant difference in the EEG pattern of both genotypes | β subunit preference of potentiation and direct activation of receptors ([2]; β2 or β3 versus β1 subunit): favours receptors containing either a β2 or a β3 subunit, versus a β1 subunit | sensitivity of mutant β2 (position 289) receptors [5]: insensitive | rate of recovery of rotarod performance, wildtype versus knock-in ([6]; 15 mg/kg i.p.): recovered rotarod performance at a similar rate | rate of recovery of rotarod performance, wildtype versus knock-in ([6]; 20 mg/kg and especially 30 mg/kg i.p.): wildtype mice recovered more slowly than knock-in mice | recovery of performance in the rotarod assay, β2N289S mice compared with wildtype ([6]; anesthetic doses): dramatically faster recovery | time mice could stay on rotarod ([6]; knock-in mice, 15 mg/kg i.p.): approximately 120 seconds | time mice could stay on rotarod ([6]; wildtype mice, 15 mg/kg i.p.): approximately 120 seconds | effect of dose on rate of rotarod recovery ([6]; wildtype mice, 15, 20, 30 mg/kg i.p., F18,243=5.80, p<0.00005, FIG. 3): clear effect on the rate of recovery with increasing dose | level of slow wave sleep versus circadian matched baseline after recovery ([7]; knock-in mice, P>0.05): not statistically different | level of slow wave sleep versus circadian matched baseline after recovery ([7]; wildtype mice, up to 3 hours post recovery, ANOVA P<0.05): enhanced level of sleep

CCCC(C)C1(CC)C(=O)NC(=O)NC1=O (stereo not drawn) [pentobarbitone]
duration of LORR, knock-in versus wildtype mice ([1]; pentobarbitone 50 mg/kg i.p., F1,28=0.61, p=0.44): no significant difference

CC(=O)[C@H]1CC[C@H]2[C@@H]3CC[C@H]4C[C@H](O)CC[C@]4(C)[C@H]3C(=O)C[C@]12C [alphaxalone]
potentiation of the action of GABA [2]: markedly potentiate the action of GABA
